Series [1] deals with T1, Recombinant human BACE-1 (Homo sapiens, UniProt P56817).
T1 construct: purchased R&D Systems
The experiment in a line: Assay of BACE-1 inhibiting activity. It is filed as biochemical. Conditions: Recombinant human BACE-1 7.4 nmol/L, substrate peptide 18 nmol/L, pH 5.0, 30° C., 3.5 hours; read-out: IC50 value (50% inhibitory concentration against the enzymatic activity). The protocol: 48.5 μL of substrate peptide solution (Biotin-XSEVNLDAEFRHDSGC-Eu: X=ε-amino-n-capronic acid, Eu=Europium cryptate) was added to each well of 96-hole half-area plate (a black plate: Costar), and after addition of 0.5 μl of the compound of the present invention (DMSO solution) and 1 μl of Recombinant human BACE-1 (R&D Systems), the reaction mixture was incubated at 30° C. for 3.5 hours. The substrate peptide was synthesized by reacting Cryptate TBPCOOH mono SMP (CIS bio international) with Biotin-XSEVNLDAEFRHDSGC (Peptide Institute, Inc.). The final concentrations of the substrate peptide and Recombinant human BACE-1 were adjusted to 18 nmol/L and 7.4 nmol/L, respectively, and the reaction was performed in sodium acetate buffer (50 mmol/L sodium acetate, pH 5.0, 0.008% Triton X-100).
After the incubation for reaction, 50 μl of 8.0 μg/ml Streptavidin-XL665 (CIS bio international) dissolved in phosphate buffer (150 mmol/L K2HPO4—KH2PO4, pH 7:0, 0.008% Triton X-100, 0.8 mol/L KF) was added to each well and left stand at 30° C. for 45 minutes. After then, fluorescence intensity was measured (excitation wavelength: 320 nm, measuring wavelength: 620 nm and 665 nm) using Wallac 1420 multilabel counter (Perkin Elmer life sciences). Enzymatic activity was determined from counting ratio of each wavelength (10,000×Count 665/Count 620) and 50% inhibitory concentration against the enzymatic activity (IC50) was calculated.

Series [2] in a line: Metabolism stability test. It is filed as in vitro ADME. Conditions: pooled human liver microsomes 0.5 mg protein/mL, 1 mmol/L NADPH, 37° C., 30 minutes; 0 minute = 100%. As for the experimental part:
Using a commercially available pooled human liver microsomes, a compound of the present invention is reacted for a constant time, a remaining rate is calculated by comparing a reacted sample and an unreacted sample, thereby, a degree of metabolism in liver was assessed.
A reaction was performed (oxidative reaction) at 37° C. for 0 minute or 30 minutes in the presence of 1 mmol/L NADPH in 0.2 mL of a buffer (50 mmol/L Tris-HCl pH 7.4, 150 mmol/L potassium chloride, 10 mmol/L magnesium chloride) containing 0.5 mg protein/mL of human liver microsomes. After the reaction, 50 μL of the reaction solution was added to 100 μL of a methanol/acetonitrile=1/1 (v/v), mixed and centrifuged at 3000 rpm for 15 minutes. The compound of the present invention in the supernatant was quantified by LC/MS/MS, and a remaining amount of the compound of the present invention after the reaction was calculated, letting a compound amount at 0 minute reaction time to be 100%.
(In general: Liver microsomes are a subcellular fraction often used to study metabolism.)

The target in series [3] is T2, CYP3A4 (Homo sapiens, UniProt P08684).
T2 construct: host or cells: Escherichia coli (printed 'Escherichia cob')
T2 sequence (P08684 whole entry): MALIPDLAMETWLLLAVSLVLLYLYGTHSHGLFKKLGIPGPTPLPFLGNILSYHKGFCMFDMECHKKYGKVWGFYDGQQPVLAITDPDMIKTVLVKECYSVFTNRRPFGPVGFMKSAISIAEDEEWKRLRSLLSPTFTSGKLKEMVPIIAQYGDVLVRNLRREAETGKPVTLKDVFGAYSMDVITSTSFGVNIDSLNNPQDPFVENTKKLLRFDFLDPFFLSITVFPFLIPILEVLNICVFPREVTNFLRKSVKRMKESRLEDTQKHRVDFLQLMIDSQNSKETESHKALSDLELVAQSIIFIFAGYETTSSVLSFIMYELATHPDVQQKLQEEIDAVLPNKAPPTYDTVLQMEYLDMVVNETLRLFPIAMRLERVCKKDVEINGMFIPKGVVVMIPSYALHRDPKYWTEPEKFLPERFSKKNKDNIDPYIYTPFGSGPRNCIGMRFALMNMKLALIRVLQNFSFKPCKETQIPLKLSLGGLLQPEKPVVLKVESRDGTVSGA
The experiment in a line: CYP3A4 fluorescent MBI test. Conditions: substrate 7-BFC; pre-reaction time 0 or 30 minutes; compound 0.625-20 μmol/L. It is filed as in vitro ADME. The protocol: The CYP3A4 fluorescent MBI test is a test of investigating enhancement of CYP3A4 inhibition of a compound by a metabolism reaction. 7-benzyloxytrifluoromethylcoumarin (7-BFC) is debenzylated by the CYP3A4 enzyme (enzyme expressed in Escherichia cob) and 7-hydroxytrifluoromethylcoumarin (7-HFC) is produced as a fluorescing metabolite. The test is performed using 7-HFC production reaction as an index.
The reaction conditions are as follows: substrate, 5.6 […], 7-BFC; pre-reaction time, 0 or 30 minutes; reaction time, 15 minutes; reaction temperature, 25° C. […]
An enzyme in a K-Pi buffer (pH 7.4) and a compound of the present invention solution as a pre-reaction solution were added to a 96-well plate at the composition of the pre-reaction. […] Fluorescent values of 7-HFC as a metabolite were measured in each index reaction plate with a fluorescent plate reader (Ex=420 nm, Em=535 nm).
The sample adding DMSO to a reaction system instead of compound of the present invention solution is adopted as a control (100%) because DMSO is used as a solvent to dissolve a compound of the present invention. Remaining activity (%) was calculated at each concentration of the compound of the present invention added as the solution, and IC50 was calculated by reverse-presumption by a logistic model using a concentration and an inhibition rate. […]

Series [4] is described as follows: Solubility test (turbidity, JP-I, JP-II). It counts as physicochemical. Conditions: kinetic from dmso stock, 2% DMSO, turbidity after 4 hours. As for the experimental part:
A 2-fold dilution series (12 points) of a 10 mM solution of a compound of the present invention in DMSO was added to a medium (JP-I, JP-II) (2%), and solubility was assessed by 3 stages (High; >40 μM, Medium; 3-40 μM, Low; <3 μM) from a turbidity after 4 hours.

A short description of series [5]: BA test (oral absorption). Conditions: plasma; from AUCs of oral (1 to 30 mg/kg) and intravenous (0.5 to 10 mg/kg) administration groups. It counts as in vivo, mouse or SD rat. As for the experimental part: Materials and Methods for Studies on Oral Absorption (1) Animal: mouse or SD rat (2) Breeding conditions: mouse or SD rat is allowed free access to the sterilized tap water and the solid food. […] (6) Evaluation items: blood was collected at the scheduled time, and the plasma concentration of the compound of the present invention was measured by LC/MS/MS (7) Statistical analysis: regarding the transition of the plasma concentration of the compound of the present invention, the area under the plasma concentration-time curve (AUC) was calculated by non-linear least squares program WinNonlin (Registered trademark), and the bioavailability (BA) of the compound of the present invention was calculated from the AUCs of the oral administration group and intravenous administration group

Like-named read-outs stand apart in the source and are kept apart here.

T1 sequence (P56817 46-501): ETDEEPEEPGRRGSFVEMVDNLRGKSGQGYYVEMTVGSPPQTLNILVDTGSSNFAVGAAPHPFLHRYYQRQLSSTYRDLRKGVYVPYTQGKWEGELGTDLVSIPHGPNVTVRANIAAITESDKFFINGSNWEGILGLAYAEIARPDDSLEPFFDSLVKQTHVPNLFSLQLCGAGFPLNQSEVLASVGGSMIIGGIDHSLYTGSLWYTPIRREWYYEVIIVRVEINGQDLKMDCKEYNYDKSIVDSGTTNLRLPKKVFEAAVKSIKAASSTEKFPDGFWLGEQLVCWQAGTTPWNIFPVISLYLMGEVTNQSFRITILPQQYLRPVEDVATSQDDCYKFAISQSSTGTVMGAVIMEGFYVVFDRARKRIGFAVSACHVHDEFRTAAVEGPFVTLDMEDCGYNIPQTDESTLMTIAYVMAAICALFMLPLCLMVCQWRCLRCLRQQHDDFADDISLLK

Consider `NC1=N[C@](CF)(c2cc(NC(=O)c3cnc(C(F)F)cn3)ccn2)CCS1` [Compound I-246], for which the IC50 in series [1] is ≤ 1000 nM. `C#Cc1ccc(C(=O)Nc2ccnc([C@]3(C)CCSC(N)=N3)c2)nc1` [Compound I-8]: the IC50 in series [1] worked out at 78 nM.

Consider `C[C@@H]1C[C@@](C)(c2cc(NC(=O)c3cnccn3)ccn2)N=C(N)S1` [Compound I-294], for which, in series [1], the IC50 is ≤ 1000 nM. `C[C@@]1(c2cc(NC(=O)c3ccccn3)ccn2)CCSC(N)=N1` [Compound I-272]: the IC50 in series [1] was ≤ 1000 nM.

Regarding `C=C1C[C@@](C)(c2cc(NC(=O)c3ccc(C(F)F)cn3)ccn2)N=C(N)S1` [Compound I-11], the IC50 in series [1] came out at 48 nM. In the case of `CC#Cc1ccc(C(=O)Nc2ccnc([C@]3(C)CCSC(N)=N3)c2)nc1` [Compound I-9], the IC50 in series [1] is ≤ 1000 nM. Still for that read-out and setting: in the case of `Cc1cnc(C(=O)Nc2ccnc([C@]3(C)C[C@@H](C)SC(N)=N3)c2)cn1` [Compound I-293] it was ≤ 1000 nM.

For `CC(F)(F)Oc1ccc(C(=O)Nc2ccnc([C@]3(C)C=CSC(N)=N3)c2)nc1` [Compound I-24], in series [2], the “remaining amount of the compound after the reaction” value was 98%.

With `C[C@@]1(c2cc(NC(=O)c3ccc(C#N)cn3)ccn2)CCSC(N)=N1` [Compound I-1], the IC50 in series [1] was ≤ 1000 nM. Besides, in series [3], the “CYP3A4 MBI: difference between IC50 values with and without preincubation, positive (+) / negative (−)” value is given as “(−) (When the difference was 3 μM or less, this was defined as negative(−))”.

Usually solubility stands for the dissolved amount per volume that the medium holds. For `COc1cnc(C(=O)Nc2ccnc([C@]3(C)C=CSC(N)=N3)c2)cn1` [Compound I-47], the solubility at 4 h is > 40 µM in series [4] (pH 1.2, simulated gastric fluid, medium JP-I, read-out: Solubility (3 stages) in JP-I) and > 40 µM in series [4] (pH 6.8, fassgf or other biorelevant, medium JP-II, read-out: Solubility (3 stages) in JP-II). For the molecule `C[C@@]1(c2cc(NC(=O)c3cnc(OC(F)F)cn3)ccn2)C=CSC(N)=N1` [Compound I-2], in series [1], the IC50 amounted to 33 nM. Still for that read-out and setting: in the case of `C[C@@H]1C[C@@](C)(c2cc(NC(=O)c3ccccn3)ccn2)N=C(N)S1` [Compound I-273] it was ≤ 1000 nM.

Usually bioavailability stands for the share of a dose that reaches the circulation, judged against a reference dose that is usually intravenous. Low values mean little systemic uptake, high ones much systemic uptake. `C[C@@]1(c2cc(NC(=O)c3ccc(C#N)cn3)ccn2)C=CSC(N)=N1.O=C(O)C(O)C(O)C(=O)O` [Compound I-10]: in series [1], the IC50 was ≤ 1000 nM. The same molecule yielded a bioavailability in series [5] of 96.7%.
